The text below walks through data of patent US20090131459A1, “2-Thioxanthine Derivatives Acting as MPO-Inhibitors” (ASTRAZENECA AB, priority 2006, published 2009).

This test deals with T1, human MPO (Homo sapiens, UniProt P05164).
T1 sequence (P05164 49-745): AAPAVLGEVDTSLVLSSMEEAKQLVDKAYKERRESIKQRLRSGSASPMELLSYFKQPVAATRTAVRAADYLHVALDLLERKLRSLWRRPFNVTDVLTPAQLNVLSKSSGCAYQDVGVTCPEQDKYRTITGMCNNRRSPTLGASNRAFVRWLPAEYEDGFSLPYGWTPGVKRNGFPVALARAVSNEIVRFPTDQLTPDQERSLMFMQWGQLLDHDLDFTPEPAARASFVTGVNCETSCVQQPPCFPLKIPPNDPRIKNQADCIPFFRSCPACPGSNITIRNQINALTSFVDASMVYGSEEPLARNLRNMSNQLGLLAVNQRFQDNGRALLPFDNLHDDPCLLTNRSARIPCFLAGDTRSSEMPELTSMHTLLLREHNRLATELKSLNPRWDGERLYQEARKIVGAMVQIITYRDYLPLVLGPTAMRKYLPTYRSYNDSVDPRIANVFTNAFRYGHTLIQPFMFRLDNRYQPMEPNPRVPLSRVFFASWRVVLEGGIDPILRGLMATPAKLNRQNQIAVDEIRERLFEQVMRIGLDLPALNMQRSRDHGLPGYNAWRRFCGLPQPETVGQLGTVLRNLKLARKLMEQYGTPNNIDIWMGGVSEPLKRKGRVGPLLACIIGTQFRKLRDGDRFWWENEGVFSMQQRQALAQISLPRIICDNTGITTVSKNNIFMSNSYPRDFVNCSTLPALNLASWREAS
The experiment in a line: MPO inhibition screen (TMB oxidation, with or without added tyrosine). It is filed as biochemical. Particulars: in the presence of tyrosine. On the procedure: Methods for the determination of MPO inhibitory activity are disclosed in patent application WO 02/090575. The pharmacological activity of compounds according to the invention was tested in the following screen in which the compounds were either tested alone or in the presence of added tyrosine:
Assay buffer: 20 mM sodium/potassium phosphate buffer pH 6.5 containing 10 mM taurine and 100 mM NaCl.
Developing reagent: 2 mM 3,3′,5,5′-tetramethylbenzidine (TMB), 200 μM KI, 200 mM acetate buffer pH 5.4 with 20% DMF.
To 10 μl of diluted compounds in assay buffer, 40 μl of human MPO (final concentration […]), with or without 20 μM tyrosine (final concentration, if present, 8 μM), was added and the mixture was incubated for 10 minutes at ambient temperature. Then 50 μl of H2O2 (final concentration 100 μM), or assay buffer alone as a control, were added. After incubation for 10 minutes at ambient temperature, the reaction was stopped by adding 10 μl 0.2 mg/ml of catalase (final concentration 18 μg/ml). The reaction mixture was left for an additional 5 minutes before 100 μl of TMB developing reagent was added. The amount of oxidised 3,3′,5,5′-tetramethylbenzidine formed was then measured after about 5 minutes using absorbance spectroscopy at about […]. IC50 values were then determined using standard procedures.

Broadly, the IC50 is the concentration at which inhibition is half-maximal. Consider `CCOC(C)Cn1c(=S)[nH]c(=O)c2[nH]cnc21` (racemic) [Example 5, 3-(2-Ethoxy-propyl)-2-thioxanthine], for which the concentration for half-maximal inhibition (IC50) was 500 nM.
